In the supplement of paper PMC11208160:

Test: recombinant UMI read abundance after kanamycin selection (control-corrected) (log10(CPM+1)); higher = more efficient recombination; extreme values may be limits of the assay; sequences stand for … in AGTGCAGAGAAAATCGGCCAGTTTTCTCTGCCTGCAGTCCGCATGCCGTGGGACCCCTTGGGTTCTAACCTGTTGCCTAGATTTATGCAGCGGACTGCCTTTCTCCCAAAGTGATAAACCGG…AGGTTGGTTTCACT; site = the 11-nt donor
How it was run: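 In a pooled Escherichia coli screen for the IS621 bridge recombinase, donor and donor-binding-loop pairs were each placed with a 12-nt UMI on a plasmid bearing a promoterless kanamycin gene. This library was co-electroporated with a target plasmid encoding a fixed target and T7-inducible recombinase, and cells were plated either on IPTG (0.07 mM) plus kanamycin or without selection, in two replicates each. Recombinant UMIs were PCR-amplified across the donor–target junction and sequenced, and counts were converted to CPM, averaged over replicates, scaled by control-derived factors and reported as log10(CPM+1).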
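Further: IS621 bridge recombinase in Escherichia coli cells against a fixed T5 target plasmid.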

First: TAAGGAGCATGGACCGGTTTTCCCGGTAATCCGTATTTGGG (site TAAAGAGCTCC)
Second: TAAGGAGCATGGACCGGTTTTCCCGGTAATCCGTATTTGGG (site TAACGAGCTCC)
The “recombinant UMI read abundance (log10)” value of the first is higher: 0.628 for the first, 0 for the second.

“TAAGGAGCATGGACCGGTTTTCCCGGTAATCCGTATTTGGG (site TAAGGAGCTCC)” and “TAAGGAGCATGGACCGGTTTTCCCGGTAATCCGTATTTGGG (site TAATGAGCTCC)” are within 0.2 log units of each other in “recombinant UMI read abundance (log10)” value: 0.164 for the first, 0.0199 for the second.

First: TAAGTCACATGGACCGGTTTTCCCGGTAATCCGTATTTGAC (site TAAGTCACTGT)
Second: TAAGTTTCATGGACCGGTTTTCCCGGTAATCCGTATTTGGA (site TAAGTTTCTTC)
The “recombinant UMI read abundance (log10)” value of the first is higher: 2.35 for the first, 2.13 for the second.

“TAATAAGCATGGACCGGTTTTCCCGGTAATCCGTATTTGGG (site TAATAAGCTCC)” and “TAATAAGCATGGACCGGTTTTCCCGGTAATCCGTATTTGGG (site TAATCAGCTCC)” are within 0.2 log units of each other in “recombinant UMI read abundance (log10)” value: 0.013 for the first, 0.012 for the second.

First: TAATAAGCATGGACCGGTTTTCCCGGTAATCCGTATTTGGG (site TAATGAGCTCC)
Second: TAATAAGCATGGACCGGTTTTCCCGGTAATCCGTATTTGGG (site TAATTAGCTCC)
The “recombinant UMI read abundance (log10)” value of the first is lower: 0.00879 for the first, 0.507 for the second.

First: TAATCAGCATGGACCGGTTTTCCCGGTAATCCGTATTTGTC (site TAATCAGCTGA)
Second: TAATGAGCATGGACCGGTTTTCCCGGTAATCCGTATTTGAG (site TAATGAGCTCA)
The “recombinant UMI read abundance (log10)” value of the first is higher: 1.93 for the first, 0.196 for the second.

Compared with “TAATGAGCATGGACCGGTTTTCCCGGTAATCCGTATTTGAG (site TAATGAGCTCC)”, “TAATGAGCATGGACCGGTTTTCCCGGTAATCCGTATTTGAG (site TAATGAGCTCG)” is higher in “recombinant UMI read abundance (log10)” value: 0.104 for the first, 0.341 for the second.

Compared with “TAATGAGCATGGACCGGTTTTCCCGGTAATCCGTATTTGAG (site TAATGAGCTCT)”, “TAATGAGCATGGACCGGTTTTCCCGGTAATCCGTATTTGCG (site TAATGAGCTCA)” is lower in “recombinant UMI read abundance (log10)” value: 1.33 for the first, 0.385 for the second.

First: TAATGAGCATGGACCGGTTTTCCCGGTAATCCGTATTTGCG (site TAATGAGCTCC)
Second: TAATGAGCATGGACCGGTTTTCCCGGTAATCCGTATTTGCG (site TAATGAGCTCG)
The “recombinant UMI read abundance (log10)” value of the first is lower: 0.00423 for the first, 1.58 for the second.

Compared with “TAATGAGCATGGACCGGTTTTCCCGGTAATCCGTATTTGCG (site TAATGAGCTCT)”, “TAATGAGCATGGACCGGTTTTCCCGGTAATCCGTATTTGGG (site AAATGAGCTCC)” is lower in “recombinant UMI read abundance (log10)” value: 0.626 for the first, 0.117 for the second.

“TAATGAGCATGGACCGGTTTTCCCGGTAATCCGTATTTGGG (site CAATGAGCTCC)” and “TAATGAGCATGGACCGGTTTTCCCGGTAATCCGTATTTGGG (site GAATGAGCTCC)” are within 0.2 log units of each other in “recombinant UMI read abundance (log10)” value: 0.0721 for the first, 0.00249 for the second.

“TAATGAGCATGGACCGGTTTTCCCGGTAATCCGTATTTGGG (site TAAAGAGCTCC)” and “TAATGAGCATGGACCGGTTTTCCCGGTAATCCGTATTTGGG (site TAACGAGCTCC)” are within 0.2 log units of each other in “recombinant UMI read abundance (log10)” value: 0.00438 for the first, 0.0128 for the second.

“TAATGAGCATGGACCGGTTTTCCCGGTAATCCGTATTTGGG (site TAAGGAGCTCC)” and “TAATGAGCATGGACCGGTTTTCCCGGTAATCCGTATTTGGG (site TAATAAGCTCC)” are within 0.2 log units of each other in “recombinant UMI read abundance (log10)” value: 0.0167 for the first, 0.0171 for the second.

“TAATGAGCATGGACCGGTTTTCCCGGTAATCCGTATTTGGG (site TAATCAGCTCC)” and “TAATGAGCATGGACCGGTTTTCCCGGTAATCCGTATTTGGG (site TAATGAACTCC)” are within 0.2 log units of each other in “recombinant UMI read abundance (log10)” value: 0.0102 for the first, 0.0101 for the second.

“TAATGAGCATGGACCGGTTTTCCCGGTAATCCGTATTTGGG (site TAATGACCTCC)” and “TAATGAGCATGGACCGGTTTTCCCGGTAATCCGTATTTGGG (site TAATGAGCTAC)” are within 0.2 log units of each other in “recombinant UMI read abundance (log10)” value: 0.00784 for the first, 0.0203 for the second.

Compared with “TAATGAGCATGGACCGGTTTTCCCGGTAATCCGTATTTGGG (site TAATGAGCTCA)”, “TAATGAGCATGGACCGGTTTTCCCGGTAATCCGTATTTGGG (site TAATGAGCTCC)” is higher in “recombinant UMI read abundance (log10)” value: 0.00405 for the first, 0.304 for the second.

“TAATGAGCATGGACCGGTTTTCCCGGTAATCCGTATTTGGG (site TAATGAGCTCG)” and “TAATGAGCATGGACCGGTTTTCCCGGTAATCCGTATTTGGG (site TAATGAGCTCT)” are within 0.2 log units of each other in “recombinant UMI read abundance (log10)” value: 0.0101 for the first, 0.0248 for the second.

“TAATGAGCATGGACCGGTTTTCCCGGTAATCCGTATTTGGG (site TAATGAGCTGC)” and “TAATGAGCATGGACCGGTTTTCCCGGTAATCCGTATTTGGG (site TAATGAGCTTC)” are within 0.2 log units of each other in “recombinant UMI read abundance (log10)” value: 0 for the first, 0.0139 for the second.

“TAATGAGCATGGACCGGTTTTCCCGGTAATCCGTATTTGGG (site TAATGATCTCC)” and “TAATGAGCATGGACCGGTTTTCCCGGTAATCCGTATTTGGG (site TAATGCGCTCC)” are within 0.2 log units of each other in “recombinant UMI read abundance (log10)” value: 0 for the first, 0.00982 for the second.

“TAATGAGCATGGACCGGTTTTCCCGGTAATCCGTATTTGGG (site TAATGGGCTCC)” and “TAATGAGCATGGACCGGTTTTCCCGGTAATCCGTATTTGGG (site TAATGTGCTCC)” are within 0.2 log units of each other in “recombinant UMI read abundance (log10)” value: 0.0142 for the first, 0 for the second.

“TAATGAGCATGGACCGGTTTTCCCGGTAATCCGTATTTGGG (site TAATTAGCTCC)” and “TAATGAGCATGGACCGGTTTTCCCGGTAATCCGTATTTGGG (site TACTGAGCTCC)” are within 0.2 log units of each other in “recombinant UMI read abundance (log10)” value: 0.00449 for the first, 0.00582 for the second.

“TAATGAGCATGGACCGGTTTTCCCGGTAATCCGTATTTGGG (site TAGTGAGCTCC)” and “TAATGAGCATGGACCGGTTTTCCCGGTAATCCGTATTTGGG (site TATTGAGCTCC)” are within 0.2 log units of each other in “recombinant UMI read abundance (log10)” value: 0.0336 for the first, 0.0136 for the second.

“TAATGAGCATGGACCGGTTTTCCCGGTAATCCGTATTTGGG (site TCATGAGCTCC)” and “TAATGAGCATGGACCGGTTTTCCCGGTAATCCGTATTTGGG (site TGATGAGCTCC)” are within 0.2 log units of each other in “recombinant UMI read abundance (log10)” value: 0.203 for the first, 0.00873 for the second.

“TAATGAGCATGGACCGGTTTTCCCGGTAATCCGTATTTGGG (site TTATGAGCTCC)” and “TAATGCTCATGGACCGGTTTTCCCGGTAATCCGTATTTGAA (site AAATGCTCTTT)” are within 0.2 log units of each other in “recombinant UMI read abundance (log10)” value: 0.0156 for the first, 0.111 for the second.

Compared with “TAATGCTCATGGACCGGTTTTCCCGGTAATCCGTATTTGAA (site CAATGCTCTTT)”, “TAATGCTCATGGACCGGTTTTCCCGGTAATCCGTATTTGAA (site GAATGCTCTTT)” is lower in “recombinant UMI read abundance (log10)” value: 0.61 for the first, 0.106 for the second.

Going from “TAATGCTCATGGACCGGTTTTCCCGGTAATCCGTATTTGAA (site TAATGCTCTTT)” to “TAATGTCCATGGACCGGTTTTCCCGGTAATCCGTATTTGTA (site TAAAGTCCTTA)”, the “recombinant UMI read abundance (log10)” value falls from 1.19 to 0.459.

First: TAATGTCCATGGACCGGTTTTCCCGGTAATCCGTATTTGTA (site TAACGTCCTTA)
Second: TAATGTCCATGGACCGGTTTTCCCGGTAATCCGTATTTGTA (site TAAGGTCCTTA)
The “recombinant UMI read abundance (log10)” value of the first is lower: 0.254 for the first, 0.586 for the second.

Going from “TAATGTCCATGGACCGGTTTTCCCGGTAATCCGTATTTGTA (site TAATGTCCTTA)” to “TAATTAGCATGGACCGGTTTTCCCGGTAATCCGTATTTGGG (site TAATAAGCTCC)”, the “recombinant UMI read abundance (log10)” value falls from 0.766 to 0.00264.

“TAATTAGCATGGACCGGTTTTCCCGGTAATCCGTATTTGGG (site TAATCAGCTCC)” and “TAATTAGCATGGACCGGTTTTCCCGGTAATCCGTATTTGGG (site TAATGAGCTCC)” are within 0.2 log units of each other in “recombinant UMI read abundance (log10)” value: 0.0055 for the first, 0.0311 for the second.

“TAATTAGCATGGACCGGTTTTCCCGGTAATCCGTATTTGGG (site TAATTAGCTCC)” and “TAATTCACATGGACCGGTTTTCCCGGTAATCCGTATTTGGG (site TAATTCACTCC)” are within 0.2 log units of each other in “recombinant UMI read abundance (log10)” value: 0.0073 for the first, 0.0061 for the second.

First: TAATTGGCATGGACCGGTTTTCCCGGTAATCCGTATTTGTG (site TAATTGGCTCA)
Second: TAATTGGCATGGACCGGTTTTCCCGGTAATCCGTATTTGTG (site TACTTGGCTCA)
The “recombinant UMI read abundance (log10)” value of the first is higher: 0.484 for the first, 0.0115 for the second.

“TAATTGGCATGGACCGGTTTTCCCGGTAATCCGTATTTGTG (site TAGTTGGCTCA)” and “TAATTGGCATGGACCGGTTTTCCCGGTAATCCGTATTTGTG (site TATTTGGCTCA)” are within 0.2 log units of each other in “recombinant UMI read abundance (log10)” value: 0.0118 for the first, 0.00466 for the second.

First: TACAAGGCATGGACCGGTTTTCCCGGTAATCCGTATTTGGT (site TACAAGGCTAC)
Second: TACACCGCATGGACCGGTTTTCCCGGTAATCCGTATTTGTA (site TACACCGCTTA)
The “recombinant UMI read abundance (log10)” value of the first is lower: 0.732 for the first, 1.36 for the second.

“TACACTTCATGGACCGGTTTTCCCGGTAATCCGTATTTGGC (site TACACTTCTGC)” and “TACAGGCCATGGACCGGTTTTCCCGGTAATCCGTATTTGAC (site TACAGGCCTGT)” are the same in “recombinant UMI read abundance (log10)” value: 0 for the first, 0 for the second.

Going from “TACATCTCATGGACCGGTTTTCCCGGTAATCCGTATTTGTG (site TACATCTCTCA)” to “TACATGACATGGACCGGTTTTCCCGGTAATCCGTATTTGCT (site TACATGACTAG)”, the “recombinant UMI read abundance (log10)” value rises from 0.976 to 2.15.

Going from “TACATGACATGGACCGGTTTTCCCGGTAATCCGTATTTGCT (site TACCTGACTAG)” to “TACATGACATGGACCGGTTTTCCCGGTAATCCGTATTTGCT (site TACGTGACTAG)”, the “recombinant UMI read abundance (log10)” value falls from 0.938 to 0.566.

“TACATGACATGGACCGGTTTTCCCGGTAATCCGTATTTGCT (site TACTTGACTAG)” and “TACCCTGCATGGACCGGTTTTCCCGGTAATCCGTATTTGCA (site TACCCTGCTTG)” are within 0.2 log units of each other in “recombinant UMI read abundance (log10)” value: 0.0568 for the first, 0 for the second.

With “TACCGAACATGGACCGGTTTTCCCGGTAATCCGTATTTGGA (site TACCGAACTTC)” the “recombinant UMI read abundance (log10)” value was 0.277.
